# Like-named read-outs stand apart in the source and are kept apart here.
# How the values were obtained:
# [1] = tested on: HCT-116 colon tumor xenograft; test: In vivo antitumor activity, HCT-116 colon tumor xenograft bearing nude mice; design: species or system nu/nu mice; details: 30 mg/kg i.p. QOD, positive control
# Description: The therapeutic effect of 2 was evaluated on HCT-116 colon tumor xenograft bearing nude mice. The oral administration of 2 at doses of 50, 100, or 150 mg/kg bw per day were performed after tumors reached approximately 100 mm^3 and continued for 30 consecutive days. 5-Fluorouracil treatment (30 mg/kg bw, i.p., QOD) was used as a positive control. […] There was a clear dose- and time-dependent inhibitory effect on tumor size in the other two groups, in which at 50 and 150 mg/kg doses the volume of the HCT-116 colon tumor was reduced to 73% and 40% of the control, respectively (Figure 2). The body weight of the mice was recorded prior to dosing every 3 d, and the average body weight of each group is depicted in Figure 3. Otherwise, they were monitored for visible signs of toxicity and behavioral changes 1 h after each administration.
# Male nu/nu mice (5 weeks old) from National Laboratory Animal Center (Taipei, Taiwan) were maintained under the procedures and guidelines provided by the Institutional Animal Care and Use Committee of the National Health Research Institutes (Taipei, Taiwan). All experiments were supervised under the Institutional Animal Care and Use Committee, China Medical University, Taichung, Taiwan with a protocol number ([…]-2018-278). HCT-116 colon cancer cells (5 × 10^6 cells per mouse) were suspended in 0.1 mL of Matrigel solution (50% v/v Matrigel in PBS) and inoculated into the mammary fat pads of the mice. When the tumor size reached 100 mm^3, the tumor-bearing mice were randomly divided into four groups for treating with vehicle (5% ethanol and 10% tween 80 in 85% saline, 0.1 mL) and 2 (p.o. 50, 100 and 150 mg/kg/day body weight) respectively. Compounds was administered via oral route daily for 30 days. 5-Fluorouracil-treated group (i.p. 30 mg/kg) is the positive control. Tumor size and mouse body weight were measured once every 3 days, and tumor volume (mm^3) was calculated using the equation: length × (width)^2 × 0.5. At the end of experiments, mice were sacrificed.
# MDA-MB-231 = test: MTT anti-proliferative assay, MDA-MB-231; assay type: cell-based; details: Homo sapiens
# Description: (§1) These compounds, along with all newly synthesized compounds, were screened for anti-proliferative activity against the same TNBC and colon cancer cell lines.
# (§2) Cell viability was evaluated by measuring the reduction in MTT to yield blue formazan. Cells were cultured in 96-well plates, allowed to attach overnight, and then treated with compounds. After treatment, MTT solution (1 mg/mL) was added to each well, and plates were incubated for another 2 h. Medium was removed, blue formazan was dissolved in DMSO, and the absorbance was read at 570 nm by Multiskan Go spectrophotometer (Thermo Scientific, Madison, WI, USA).
# HCT-116 = test: MTT anti-proliferative assay, HCT-116; assay type: cell-based; details: Homo sapiens
# Description: as §1, §2
# [2] = 48 h treatment, MTT, mean ± SD of at least three experiments, read-out: IC50 (M)/ 48 h MDA-MB-231
# [3] = 48 h treatment, MTT, mean ± SD of at least three experiments, read-out: IC50 (M)/ 48 h HCT-116
# [4] = anti-proliferative screening, read-out: IC50 MDA-MB-231
# [5] = anti-proliferative screening, read-out: IC50 HCT-116
SMILES,IC50 (MDA-MB-231; [2]),IC50 (HCT-116; [3]),melting point,IC50 (MDA-MB-231; [4]),IC50 (HCT-116; [5]),tumor-growth inhibition [1]
"O=c1[nH]cc(F)c(=O)[nH]1 [5-Fluorouracil, reference compound]",–,–,–,–,–,40%
"CCC(CC)(C(=O)/C=C/c1ccc(O)c(OC)c1)C(=O)/C=C/c1ccc(O)c(OC)c1 [Compound 3m, (1E,6E)-4,4-Diethyl-1,7-bis(4-hydroxy-3-methoxyphenyl)hepta-1,6-diene-3,5-dione]",9.12e-06 ± 4e-07 M,8.18e-06 ± 5.7e-07 M,114 to 115 °C,–,–,–
"C=CCC(CC=C)(C(=O)/C=C/c1ccc(O)c(OC)c1)C(=O)/C=C/c1ccc(O)c(OC)c1 [Compound 6m, (1E,6E)-4,4-Diallyl-1,7-bis(4-hydroxy-3-methoxyphenyl)hepta-1,6-diene-3,5-dione]",6.88e-06 ± 3.6e-07 M,4.4e-06 ± 5.3e-07 M,–,–,–,–
"COc1cc(/C=C/C(=O)C(COC(C)=O)(COC(C)=O)C(=O)/C=C/c2ccc(OC(=O)C(C)(CO)CO)c(OC)c2)ccc1OC(=O)C(C)(CO)CO [Compound 10, [(1E,6E)-4,4-bis(Acetoxymethyl)-3,5-dioxohepta-1,6-diene-1,7-diyl]bis(2-methoxy-4,1-phenylene) bis[3-hydroxy-2-(hydroxymethyl)-2-methylpropanoate]]",6.55e-06 ± 4e-08 M,6.53e-06 ± 1e-08 M,194 to 196 °C,–,–,–
"COc1ccc(/C=C/C(=O)C(CO)(CO)C(=O)/C=C/c2ccc(OC)c(OC)c2)cc1OC [Compound 12, (1E,6E)-1,7-bis(3,4-Dimethoxyphenyl)-4,4-bis(hydroxymethyl)hepta-1,6-diene-3,5-dione]",5.35e-05 ± 3.45e-06 M,5.8e-05 ± 6e-07 M,174 to 176 °C,–,–,–
"COc1ccc(/C=C/C(=O)C(COC(=O)C(C)(CO)CO)(COC(=O)C(C)(CO)CO)C(=O)/C=C/c2ccc(OC)c(OC)c2)cc1OC [Compound 14, 2,2-bis[(E)-3-(3,4-Dimethoxyphenyl)acryloyl]propane-1,3-diylbis[3-hydroxy-2-(hydroxymethyl)-2-methylpropanoate]]",5.74e-05 ± 2.06e-06 M,4.01e-05 ± 1.61e-06 M,> 300 °C,–,–,–
"CCCC(CCC)(C(=O)/C=C/c1ccc(O)c(OC)c1)C(=O)/C=C/c1ccc(O)c(OC)c1 [Compound 15, (1E,6E)-1,7-bis(4-Hydroxy-3-methoxyphenyl)-4,4-dipropylhepta-1,6-diene-3,5-dione]",1.82e-05 ± 5.3e-07 M,1.07e-05 ± 1.63e-06 M,137 to 139 °C,–,–,–
"COc1cc(/C=C/C(=O)C(C)(C)C(=O)CCc2ccc(O)c(OC)c2)ccc1O [Compound 18, (E)-1,7-bis(4-Hydroxy-3-methoxyphenyl)-4,4-dimethylhept-1-ene-3,5-dione]",–,–,–,3.648e-05 ± 3.4e-07 M,9.64e-06 ± 2.1e-07 M,–
"COc1cc(CCC(=O)C(C)(C)C(=O)CCc2ccc(O)c(OC)c2)ccc1O [Compound 19, 1,7-bis(4-Hydroxy-3-methoxyphenyl)-4,4-dimethylheptane-3,5-dione]",–,–,–,≥ 0.0001 M,≥ 0.0001 M,–
"COc1cc(/C=C/C(=O)CC(=O)/C=C/c2ccc(O)c(OC)c2)ccc1O [Curcumin, (1E,6E)-1,7-bis(4-hydroxy-3-methoxyphenyl)hepta-1,6-diene-3,5-dione]",2.21e-05 ± 2.97e-06 M,2.63e-05 ± 1.38e-06 M,–,–,–,–

# Now from value to molecule, other results behind:
IC50 (MDA-MB-231; [2]),IC50 (HCT-116; [3]),melting point,IC50 (MDA-MB-231; [4]),IC50 (HCT-116; [5]),SMILES,tumor-growth inhibition [1]
3.02e-06 ± 1.5e-07 M,1.93e-06 ± 1e-08 M,–,–,–,CCC(CC)(C(=O)/C=C/c1ccc(OC(=O)C(C)(CO)CO)c(OC)c1)C(=O)/C=C/c1ccc(OC(=O)C(C)(CO)CO)c(OC)c1 [Compound 3],–
2.45e-06 ± 2.4e-07 M,7.66e-06 ± 6.1e-07 M,–,–,–,COc1cc(/C=C/C(=O)C(Cc2ccccc2)(Cc2ccccc2)C(=O)/C=C/c2ccc(OC(=O)C(C)(CO)CO)c(OC)c2)ccc1OC(=O)C(C)(CO)CO [Compound 4],–
3.65e-05 ± 1.66e-06 M,9.4e-06 ± 2e-08 M,134 to 135 °C,–,–,"COc1cc(/C=C/C(=O)C(Cc2ccccc2)(Cc2ccccc2)C(=O)/C=C/c2ccc(O)c(OC)c2)ccc1O [Compound 4m, (1E,6E)-4,4-Dibenzyl-1,7-bis(4-hydroxy-3-methoxyphenyl)hepta-1,6-diene-3,5-dione]",–
5.87e-06 ± 1e-07 M,5.81e-06 ± 2.3e-07 M,–,–,–,C#CCC(CC#C)(C(=O)/C=C/c1ccc(OC(=O)C(C)(CO)CO)c(OC)c1)C(=O)/C=C/c1ccc(OC(=O)C(C)(CO)CO)c(OC)c1 [Compound 5],–
3.1e-06 ± 1.5e-07 M,1.38e-06 ± 6e-08 M,–,–,–,"C#CCC(CC#C)(C(=O)/C=C/c1ccc(O)c(OC)c1)C(=O)/C=C/c1ccc(O)c(OC)c1 [Compound 5m, (1E,6E)-1,7-bis(4-Hydroxy-3-methoxyphenyl)-4,4-di(prop-2-yn-1-yl)hepta-1,6-diene-3,5-dione]",–
3.13e-06 ± 5.4e-07 M,9.2e-07 ± 6e-08 M,195 to 197 °C,–,–,"C=CCC(CC=C)(C(=O)/C=C/c1ccc(OC(=O)C(C)(CO)CO)c(OC)c1)C(=O)/C=C/c1ccc(OC(=O)C(C)(CO)CO)c(OC)c1 [Compound 6, [(1E,6E)-4,4-Diallyl-3,5-dioxohepta-1,6-diene-1,7-diyl]bis(2-methoxy-4,1-phenylene) bis[3-hydroxy-2-(hydroxymethyl)-2-methylpropanoate]]",–
8.49e-05 ± 1.67e-06 M,6.91e-05 ± 3.11e-06 M,187 to 188 °C,–,–,"COCC(COC)(C(=O)/C=C/c1ccc(OC(=O)C(C)(CO)CO)c(OC)c1)C(=O)/C=C/c1ccc(OC(=O)C(C)(CO)CO)c(OC)c1 [Compound 11, [(1E,6E)-4,4-bis(Methoxymethyl)-3,5-dioxohepta-1,6-diene-1,7-diyl]bis(2-methoxy-4,1-phenylene) bis[3-hydroxy-2-(hydroxymethyl)-2-methylpropanoate]]",–
> 0.0001 M,6.7e-05 ± 3.18e-06 M,144 to 146 °C,–,–,"CCCCC(CCCC)(C(=O)/C=C/c1ccc(O)c(OC)c1)C(=O)/C=C/c1ccc(O)c(OC)c1 [Compound 16, (1E,6E)-4,4-Dibutyl-1,7-bis(4-hydroxy-3-methoxyphenyl)hepta-1,6-diene-3,5-dione]",–
–,–,–,≥ 0.0001 M,≥ 0.0001 M,"COc1cc(CCC(=O)C(C)(C)C(O)CCc2ccc(O)c(OC)c2)ccc1O (stereo not drawn) [Compound 20, 5-hydroxy-1,7-bis(4-hydroxy-3-methoxyphenyl)-4,4-dimethylheptan-3-one]",–
–,–,–,≥ 0.0001 M,≥ 0.0001 M,"COc1cc(CCC(O)C(C)(C)C(O)CCc2ccc(O)c(OC)c2)ccc1O (stereo not drawn) [Compound 21, 1,7-bis(4-Hydroxy-3-methoxyphenyl)-4,4-dimethylheptane-3,5-diol]",–
